Data on 6 compounds can be found in patent US12240839B2, “Cyclobutyl dihydroquinoline sulfonamide compounds” (AMGEN INC., priority 2020, dated 2025).

Molecules are shown by their SMILES. Like-named read-outs stand apart in the source and are kept apart here.

Series [1] deals with CYP3A4. The note with it: hepatocytes.
Series [2] addresses Human Nav1.7 (Homo sapiens (Human), UniProt Q15858). The series can be described thus: IonWorks Barracuda (IWB) automated patch clamp assay. It is filed as cell-based. The note with it: human Nav1.7 in HEK cells, population patch-clamp, state- and use-dependent voltage protocol; read-out: hNaV1.7 IWB-U IC50. On the procedure:
IonWorks Barracuda (IWB) Automated Patch Clamp Assay (Same Protocol for Both Human and Mouse)
Human Nav1.7 currents were recorded in population patch-clamp mode with the IWB automated electrophysiology system (Molecular Devices, LLC, Sunnyvale, CA). Spiking HEK cells (without Kir2.1 transfection) were cultured and prepared for recordings as previously described for IonWorks Quattro testing^1. The external solution consisted of the following (in mM): NaCl 140, KCl 5, CaCl2 2, MgCl2 1, HEPES 10, and glucose 11, pH 7.4, with N-methyl-D-glucamine at 320 mOsmol. […] From a holding potential of −110 mV, currents were elicited by a train of 26 depolarizations of 150 ms duration to −20 mV at a frequency of 5 Hz. Cells were then clamped to −20 mV for a period of 4 minutes in the presence of a single concentration of test compound. Following this compound incubation period, cells were clamped to −110 mV for three seconds to recover unbound channels and put through the same 26 pulse voltage protocol as above. Peak inward current during the 26th pulse to −20 mV in the presence of compound was divided by the peak inward current evoked by the 26th pulse to −20 mV in the absence of compound to determine percent inhibition. Concentration-response curves of percent inhibition as a function of concentration were generated to calculate IC50 values as described in Kornecook, T. J.; Yin, R.; Altmann, S.; et al. Pharmacologic Characterization of AMG8379, a Potent and Selective Small Molecule Sulfonamide Antagonist of the Voltage-Gated Sodium Channel NaV1. 7.
The potency of the compounds of the present invention were evaluated on human Nav1.7 channels using the above described IonWorks Barracuda automated electrophysiology platform that evaluates the ability of compounds to block sodium conductance through Nav1.7 channels. A voltage-protocol that prosecutes both state-dependent as well as use-dependent inhibition was used as these modes of action are thought to be more relevant for the native state of Nav1.7 channels in pain sensing neurons in vivo.

The subject of series [3] is CYP3A4. The series can be described thus: Human CYP3A4 induction assay (mRNA, cryopreserved human hepatocytes). Particulars: 10 uM test compound, 72 hours, percent of control (rifampin positive control).
Experimental: Human CYP3A4 Induction Assay
Cryopreserved human hepatocytes were seeded in 96-well collagen coated plates at 70,000 cells per well in hepatocyte plating media (HPM, final concentrations: 1× Dulbecco's Modified Eagle's Medium, 0.1 μM dexamethasone, 10% fetal bovine serum, 1×ITS, 1×PSG) followed by incubation at 37° C. under 5% CO2 and 90% relative humidity for 2 days to allow hepatocytes to form a confluent layer. On Day 3, hepatocytes were treated with either test compound or rifampin (20 μM, positive control for CYP3A induction) prepared in hepatocyte incubation media ((HIM, final concentrations: 1× William's Medium E, 0.1 μM dexamethasone, 1×ITS, 1×PSG). Treatment was performed for 72 hours with either 2 concentrations (2 μM or 10 μM) or a range of concentrations (0.001 μM to 100 μM) of the test compound to obtain full dose-response curve. Fresh media containing the relevant concentrations of the test compound was replaced every day until the samples were processed. After 72 hours of incubation, samples were processed for mRNA analysis using bDNA technology using manufacturer's instructions (Affymetrix, Fremont, CA). Cell viability was tested at the end of the experiment using MTT assay kit (Roche Diagnostics, Basel, Switzerland). Data was analyzed and presented as percent of control (POC) and Emax and EC50 obtained when appropriate according to guidance from Center for Drug Evaluation and Research (CDER), 2006, Guidance for Industry, Drug Interaction Studies—Study Design, Data Analysis, and Implications for Dosing and Labeling.

Sequence of Human Nav1.7 (Q15858 whole entry): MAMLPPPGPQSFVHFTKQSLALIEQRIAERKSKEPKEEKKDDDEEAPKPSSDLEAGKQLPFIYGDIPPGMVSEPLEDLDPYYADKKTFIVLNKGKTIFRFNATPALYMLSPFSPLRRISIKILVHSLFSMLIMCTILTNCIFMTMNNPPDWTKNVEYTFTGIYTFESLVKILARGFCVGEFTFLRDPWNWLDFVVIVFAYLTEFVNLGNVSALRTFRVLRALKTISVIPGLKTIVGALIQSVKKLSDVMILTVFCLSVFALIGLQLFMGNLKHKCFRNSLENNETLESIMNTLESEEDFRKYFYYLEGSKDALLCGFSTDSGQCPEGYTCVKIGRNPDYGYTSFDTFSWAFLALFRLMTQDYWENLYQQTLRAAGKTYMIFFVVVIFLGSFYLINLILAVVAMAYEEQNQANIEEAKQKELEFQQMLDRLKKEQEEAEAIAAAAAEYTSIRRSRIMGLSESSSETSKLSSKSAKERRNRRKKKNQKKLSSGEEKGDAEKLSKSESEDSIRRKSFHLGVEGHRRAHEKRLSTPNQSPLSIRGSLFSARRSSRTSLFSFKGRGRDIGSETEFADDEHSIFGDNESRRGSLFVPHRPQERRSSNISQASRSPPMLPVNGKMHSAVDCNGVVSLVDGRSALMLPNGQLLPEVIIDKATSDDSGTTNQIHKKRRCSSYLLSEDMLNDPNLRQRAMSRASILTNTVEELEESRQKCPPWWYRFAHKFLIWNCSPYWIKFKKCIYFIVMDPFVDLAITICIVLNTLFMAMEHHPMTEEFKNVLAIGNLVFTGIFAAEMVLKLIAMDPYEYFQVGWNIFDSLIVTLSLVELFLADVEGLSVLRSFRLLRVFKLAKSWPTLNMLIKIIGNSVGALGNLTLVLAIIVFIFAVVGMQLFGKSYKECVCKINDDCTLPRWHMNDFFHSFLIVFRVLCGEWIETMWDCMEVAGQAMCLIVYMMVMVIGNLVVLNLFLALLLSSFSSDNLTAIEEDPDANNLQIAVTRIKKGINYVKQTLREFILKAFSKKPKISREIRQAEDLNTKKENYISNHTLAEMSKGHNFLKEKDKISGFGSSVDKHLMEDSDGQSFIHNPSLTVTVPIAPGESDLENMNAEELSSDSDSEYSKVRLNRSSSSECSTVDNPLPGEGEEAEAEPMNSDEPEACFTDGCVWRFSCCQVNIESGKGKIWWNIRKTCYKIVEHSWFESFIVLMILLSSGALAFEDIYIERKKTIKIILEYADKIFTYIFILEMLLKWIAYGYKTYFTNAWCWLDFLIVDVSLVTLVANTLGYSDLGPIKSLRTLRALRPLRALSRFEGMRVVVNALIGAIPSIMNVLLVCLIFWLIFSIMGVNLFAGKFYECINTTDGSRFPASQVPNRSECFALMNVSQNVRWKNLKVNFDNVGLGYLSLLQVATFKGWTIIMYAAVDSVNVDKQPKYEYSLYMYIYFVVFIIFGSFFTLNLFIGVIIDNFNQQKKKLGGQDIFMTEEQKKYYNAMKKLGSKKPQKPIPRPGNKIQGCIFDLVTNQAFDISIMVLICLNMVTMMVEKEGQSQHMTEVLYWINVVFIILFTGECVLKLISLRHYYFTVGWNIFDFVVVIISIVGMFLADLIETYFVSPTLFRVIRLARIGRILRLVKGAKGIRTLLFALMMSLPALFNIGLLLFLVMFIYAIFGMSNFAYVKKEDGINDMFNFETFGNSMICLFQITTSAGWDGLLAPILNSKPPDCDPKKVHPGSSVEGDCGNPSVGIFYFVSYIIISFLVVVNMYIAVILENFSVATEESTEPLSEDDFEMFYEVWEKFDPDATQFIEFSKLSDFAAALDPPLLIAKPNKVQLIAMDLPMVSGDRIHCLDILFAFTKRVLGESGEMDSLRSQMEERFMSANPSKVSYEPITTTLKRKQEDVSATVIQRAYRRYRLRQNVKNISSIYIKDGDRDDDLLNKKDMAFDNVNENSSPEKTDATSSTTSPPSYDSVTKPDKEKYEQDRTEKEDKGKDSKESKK

In the case of `COc1cc([C@H]2C[C@@](F)(C(F)(F)F)C2)c(F)cc1-n1c(=O)ccc2cc(S(=O)(=O)Nc3ccon3)ccc21` (atropisomer, axis not shown; (P)) [Example 8, trans-(P)-1-(5-fluoro-4-(3-fluoro-3-(trifluoromethyl)cyclobutyl)-2-methoxyphenyl)-N-(isoxazol-3-yl)-2-oxo-1,2-dihydroquinoline-6-sulfonamide], in series [1], the “Hu CYP3A4 mRNA Induction (10 uM POC)” value was determined as 10.51%. For the compound `COc1cc([C@H]2C[C@H](C(F)(F)F)C2)c(C)cc1-n1c(=O)ccc2cc(S(=O)(=O)Nc3ncccn3)ccc21` (atropisomer, axis not shown; (P)) [Example 37, trans-(P)-1-(2-methoxy-5-methyl-4-(3-(trifluoromethyl)cyclobutyl)phenyl)-2-oxo-N-(pyrimidin-2-yl)-1,2-dihydroquinoline-6-sulfonamide], the IC50 in series [2] was determined as 62 nM.

On to `COc1cc(C2CC(C(C)(C)C)C2)c(F)cc1-n1c(=O)ccc2cc(S(=O)(=O)Nc3ccon3)ccc21` (racemic) [Example 2, 1-(4-(3-(tert-butyl)cyclobutyl)-5-fluoro-2-methoxyphenyl)-N-(isoxazol-3-yl)-2-oxo-1,2-dihydroquinoline-6-sulfonamide], for which, in series [2], the IC50 was 25 nM.

Consider `COc1cc([C@H]2C[C@H](C(F)(F)F)C2)c(F)cc1-n1c(=O)ccc2cc(S(=O)(=O)Nc3ccon3)ccc21` (single isomer, unassigned) [Example 7, trans-(P)-1-(5-fluoro-2-methoxy-4-(3-(trifluoromethyl)cyclobutyl)phenyl)-N-(isoxazol-3-yl)-2-oxo-1,2-dihydroquinoline-6-sulfonamide], for which, in series [3], the “Hu CYP3A4 mRNA Induction (10 uM POC)” value was 16.35%. Besides, the IC50 in series [2] is 7 nM. Taken in the same sequence, the figures for `COc1cc([C@H]2C[C@H](C(F)(F)F)C2)c(Cl)cc1-n1c(=O)ccc2cc(S(=O)(=O)Nc3ccon3)ccc21` (single isomer, unassigned) [Example 13] were 46.85% and 6 nM.

`COc1cc(C2CC(OC(F)(F)F)C2)c(F)cc1-n1c(=O)ccc2cc(S(=O)(=O)Nc3ccon3)ccc21` (single isomer, unassigned) [Example 44, cis-(P)-1-(5-fluoro-2-methoxy-4-(3-(trifluoromethoxy)cyclobutyl)phenyl)-N-(isoxazol-3-yl)-2-oxo-1,2-dihydroquinoline-6-sulfonamide]: the IC50 in series [2] was 7 nM.
